Laboratory results from patent publication US11000033B2, “Ketone or oxime compound, and herbicide” (NISSAN CHEMICAL CORPORATION, priority 2014, dated 2021).

Columns and labels:
Assay type in all cases: in vivo
[1] = system: Leptochloa chinensis; assay: Test Example 3: herbicidal effect by foliage application, Wagner pot (symbol D); conditions: application herbicide amount 320 g/ha
In short: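 Post-emergence, paddy-type test: seedlings 14 d old in shallow-flooded (0.1–0.5 cm) alluvial soil, 25–30 °C greenhouse. Emulsion diluted to target rate, sprayed on leaves. Read-out: visual effect on each species at 3 weeks, per set criteria.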

[2] = system: beet; assay: Test Example 4: effect on crop by soil treatment (symbol f); conditions: for f (beet) effect on crop grade: application herbicide amount 320 g/ha
In short: (§1)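 Crop seeds, among them rice, wheat, beet and rapeseed, were sown in sterilized diluvial soil and covered with about 1.5 cm of soil. Boxes were kept in a greenhouse at 25° C. to 30° C. for plant growth.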

[3] = system: Scirpus juncoides; assay: Test Example 2: herbicidal activity, application during weed generation in submerged conditions (symbol B); conditions: Table 23; application herbicide amount 320 g/ha; grade 0-5 by criteria of Test Example 1
In short: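 Steps: fill pots with alluvial soil; add water to 4 cm depth; co-sow the three weeds; grow at 25° C. to 30° C. under glass; at 1–2 leaves, dose the floodwater with diluted emulsion; rate damage visually after 3 weeks.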

[4] = system: Echinochloa crus-galli var. crus-galli; assay: Test Example 5: herbicidal effect by foliage application, plastic box (symbol H); conditions: 320 g/ha, 3 weeks after application
In short: (§2)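 Seeds were sown in sterilized diluvial soil, covered with about 1.5 cm of soil and grown 14 days in a greenhouse at 25° C. to 30° C. An emulsifiable formulation diluted in water to a set rate was sprayed over foliage, and injury was scored 3 weeks later.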

[5] = system: soybean; assay: Test Example 4: effect on crop by soil treatment (symbol d); conditions: for d (soybean) effect on crop grade: application herbicide amount 320 g/ha
In short: as §1

[6] = system: Chenopodium album; assay: Test Example 5: herbicidal effect by foliage application, plastic box (symbol O); conditions: 320 g/ha, 3 weeks after application
In short: as §2

[7] = system: Scirpus juncoides; assay: Test Example 1: herbicidal activity, application before weed generation in submerged conditions (symbol B); conditions: application herbicide amount 320 g/ha
In short: (§3)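 Flooded alluvial soil (4 cm water) was mixed-sown with the three weed species, and 2.5-leaf rice seedlings were transplanted. On sowing day, a water-diluted emulsion at a predetermined rate was applied to the water surface. After 3 weeks in a 25–30 °C greenhouse, effect was scored 0–5.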

[8] = system: rapeseed; assay: Test Example 5: effect on crop by foliage application, plastic box (symbol g); conditions: 320 g/ha, 3 weeks after application
In short: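 Box culture: sterile diluvial soil, seeds spot-sown, ~1.5 cm cover, raised under glass at 25–30° C.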

[9] = system: Monochoria vaginalis; assay: Test Example 1: herbicidal activity, application before weed generation in submerged conditions (symbol C); conditions: application herbicide amount 320 g/ha
In short: as §3

[10] = system: transplanted rice plant; assay: Test Example 1: effect on crop, application before weed generation in submerged conditions (symbol a); conditions: application herbicide amount 320 g/ha
In short: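 Alluvial soil pots flooded to 4 cm water, sown with Echinochloa oryzacola, Scirpus juncoides and Monochoria vaginalis, then transplanted with 2.5 leaf stage rice seedlings; pre-emergence application. Greenhouse 25° C. to 30° C.; scored 0–5 by herbicidal ratio 3 weeks after application.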

Row | Structure (SMILES) | herbicidal effect on D (Leptochloa chinensis), grade 0-5 [1] | f (beet) effect on crop grade [2] | Herbicidal effect grade, B: Scirpus juncoides [3] | H: Echinochloa crus-galli var. crus-galli, herbicidal effect grade [4] | d (soybean) effect on crop grade [5] | O: Chenopodium album, herbicidal effect grade [6] | Herbicidal effect grade, B: Scirpus juncoides [7] | g: rapeseed, effect on crop grade [8] | Herbicidal effect grade, C: Monochoria vaginalis [9] | Effect grade on crop, a: transplanted rice plant [10] | f: beet, effect grade on crop ([2]; 320 g/ha) | H: Echinochloa crus-galli var. crus-galli, herbicidal effect (criteria 0-5) [4] | d: soybean, effect grade on crop ([5]; 320 g/ha) | O: Chenopodium album, herbicidal effect (criteria 0-5) [6] | g: rapeseed, effect on crop (criteria 0-5) [8]
1 | CON=C(C)CC1CC(OC(=O)C(C)(C)Oc2cccc(Cl)c2)=C(c2c(C)cc(C)cc2C)C1=O (centres unmarked) [1-065] | 5 (Herbicidal ratio of 90% or more (almost completely withered)) | 0 (Herbicidal ratio of 5% or lower (almost no effect)) | 5 (Herbicidal ratio of 90% or more (almost completely withered)) | 5 (Herbicidal ratio of 90% or more (almost completely withered)) | 0 (Herbicidal ratio of 5% or lower (almost no effect)) | 2 (Herbicidal ratio of 20% or higher and lower than 40%) | 5 (Herbicidal ratio of 90% or more (almost completely withered)) | 4 (Herbicidal ratio of 70% or higher and lower than 90%) | 0 (Herbicidal ratio of 5% or lower (almost no effect)) | 5 (Herbicidal ratio of 90% or more (almost completely withered)) | – | – | – | – | –
2 | CON=C(C)CC1CC(OC(=O)C(C)(C)Oc2ccccc2Cl)=C(c2c(C)cc(C)cc2C)C1=O (centres unmarked) [1-064] | 5 (Herbicidal ratio of 90% or more (almost completely withered)) | 0 (Herbicidal ratio of 5% or lower (almost no effect)) | 4 (Herbicidal ratio of 70% or higher and lower than 90%) | 5 (Herbicidal ratio of 90% or more (almost completely withered)) | 2 (Herbicidal ratio of 20% or higher and lower than 40%) | 0 (Herbicidal ratio of 5% or lower (almost no effect)) | 5 (Herbicidal ratio of 90% or more (almost completely withered)) | 4 (Herbicidal ratio of 70% or higher and lower than 90%) | 1 (Herbicidal ratio of 5% or higher and lower than 20%) | 4 (Herbicidal ratio of 70% or higher and lower than 90%) | – | – | – | – | –
3 | CON=C(CC1CC(O)=C(c2c(C)cc(C)cc2C)C1=O)c1ccccn1 (centres unmarked) [1-045] | 4 (Herbicidal ratio of 70% or higher and lower than 90%) | 0 (Herbicidal ratio of 5% or lower (almost no effect)) | 0 (Herbicidal ratio of 5% or lower (almost no effect)) | 5 (Herbicidal ratio of 90% or more (almost completely withered)) | 0 (Herbicidal ratio of 5% or lower (almost no effect)) | 0 (Herbicidal ratio of 5% or lower (almost no effect)) | 2 (Herbicidal ratio of 20% or higher and lower than 40%) | 2 (Herbicidal ratio of 20% or higher and lower than 40%) | 0 (Herbicidal ratio of 5% or lower (almost no effect)) | 3 (Herbicidal ratio of 40% or higher and lower than 70%) | – | – | – | – | –
4 | CON=C(C)CC1CC(OC(=O)COc2ccccc2OC)=C(c2c(C)cc(C)cc2C)C1=O (centres unmarked) [1-067] | 5 (Herbicidal ratio of 90% or more (almost completely withered)) | 0 (Herbicidal ratio of 5% or lower (almost no effect)) | 4 (Herbicidal ratio of 70% or higher and lower than 90%) | 5 (Herbicidal ratio of 90% or more (almost completely withered)) | 0 (Herbicidal ratio of 5% or lower (almost no effect)) | 2 (Herbicidal ratio of 20% or higher and lower than 40%) | 5 (Herbicidal ratio of 90% or more (almost completely withered)) | 4 (Herbicidal ratio of 70% or higher and lower than 90%) | 1 (Herbicidal ratio of 5% or higher and lower than 20%) | 5 (Herbicidal ratio of 90% or more (almost completely withered)) | – | – | – | – | –
5 | COCC(CC1CC(O)=C(c2c(C)cc(C)cc2C)C1=O)=NOC (centres unmarked) [1-040] | 4 (Herbicidal ratio of 70% or higher and lower than 90%) | 0 (Herbicidal ratio of 5% or lower (almost no effect)) | 0 (Herbicidal ratio of 5% or lower (almost no effect)) | 5 (Herbicidal ratio of 90% or more (almost completely withered)) | 0 (Herbicidal ratio of 5% or lower (almost no effect)) | 0 (Herbicidal ratio of 5% or lower (almost no effect)) | 2 (Herbicidal ratio of 20% or higher and lower than 40%) | 4 (Herbicidal ratio of 70% or higher and lower than 90%) | 0 (Herbicidal ratio of 5% or lower (almost no effect)) | 4 (Herbicidal ratio of 70% or higher and lower than 90%) | – | – | – | – | –
6 | CON=C(CC1CC(O)=C(c2c(C)cc(C)cc2C)C1=O)C(C)C (centres unmarked) [1-048] | 4 (Herbicidal ratio of 70% or higher and lower than 90%) | 0 (Herbicidal ratio of 5% or lower (almost no effect)) | 4 (Herbicidal ratio of 70% or higher and lower than 90%) | 5 (Herbicidal ratio of 90% or more (almost completely withered)) | 0 (Herbicidal ratio of 5% or lower (almost no effect)) | 3 (Herbicidal ratio of 40% or higher and lower than 70%) | 4 (Herbicidal ratio of 70% or higher and lower than 90%) | 3 (Herbicidal ratio of 40% or higher and lower than 70%) | 1 (Herbicidal ratio of 5% or higher and lower than 20%) | 5 (Herbicidal ratio of 90% or more (almost completely withered)) | – | – | – | – | –
7 | COCCOC1=C(c2c(C)cc(C)cc2C)C(=O)C(CC(C)=NOC)C1 (centres unmarked) [1-037] | 0 (Herbicidal ratio of 5% or lower (almost no effect)) | 0 (Herbicidal ratio of 5% or lower (almost no effect)) | 0 (Herbicidal ratio of 5% or lower (almost no effect)) | 0 (Herbicidal ratio of 5% or lower (almost no effect)) | 0 (Herbicidal ratio of 5% or lower (almost no effect)) | 0 (Herbicidal ratio of 5% or lower (almost no effect)) | 0 (Herbicidal ratio of 5% or lower (almost no effect)) | 0 (Herbicidal ratio of 5% or lower (almost no effect)) | 0 (Herbicidal ratio of 5% or lower (almost no effect)) | 0 (Herbicidal ratio of 5% or lower (almost no effect)) | – | – | – | – | –
8 | CON=C(CC1CC(O)=C(c2c(C)cc(C)cc2C)C1=O)C1CCCCC1 (centres unmarked) [1-085] | 4 (Herbicidal ratio of 70% or higher and lower than 90%) | – | 0 (Herbicidal ratio of 5% or lower (almost no effect)) | – | – | – | 0 (Herbicidal ratio of 5% or lower (almost no effect)) | – | 0 (Herbicidal ratio of 5% or lower (almost no effect)) | 3 (Herbicidal ratio of 40% or higher and lower than 70%) | 0 (Herbicidal ratio of 5% or lower (almost no effect)) | 5 (Herbicidal ratio of 90% or more (almost completely withered)) | 0 (Herbicidal ratio of 5% or lower (almost no effect)) | 0 (Herbicidal ratio of 5% or lower (almost no effect)) | 1 (Herbicidal ratio of 5% or higher and lower than 20%)
